Counter-ions that a name gives are not always drawn.
Legend:
[1] = system: ileum contraction induced by histamine; assay: Anti-anaphylaxis test: histamine-induced contraction of isolated ileum; parameters: species or system guinea pig
Method: A three-color guinea pig was used in the following experiment. The extracts of Flos Lonicerae, Fructus Forsythiae and Radix Scutellariae, both with supercritical fluid extraction and with subboiling aqueous extraction, were used as test drugs. Ebalin, an antihistamine, was used as the control drug.
The ileum of a guinea pig was taken and hung on a Magnus' bath. The basic contraction frequency of the ileum was recorded with the MacLab method. There was a total of four groups involved in this experiment: the histamine alone, the histamine plus Ebalin, the histamine plus the supercritical extract of Flos Lonicerae, Fructus Forsythiae and Radix Scutellariae, and the histamine plus sub-boiling aqueous extract. The test curves were respectively recorded after the administration of the histamine and the other test drugs. The inhibitory rate and exciting rate were calculated with the following formula: [formula]

HSV-II = assay: Inhibitory effect for virus, Cytopathic Effect (CPE) method, monolayer Holn cells; assay type: cell-based; parameters: key: “−”: Virus proliferation was inhibited and no pathologic change was found in the cells.; “+”: The cell had pathologic change
Influenza A = assay: as above; assay type: cell-based; parameters: key: “−”: Virus proliferation was inhibited and no pathologic change was found in the cells.; “+”: The cell had pathologic change
RSV [2] = assay: as above; assay type: cell-based; parameters: key: “−”: Virus proliferation was inhibited and no pathologic change was found in the cells.; “+”: The cell had pathologic change
ADV3 = assay: as above; assay type: cell-based; parameters: key: “−”: Virus proliferation was inhibited and no pathologic change was found in the cells.; “+”: The cell had pathologic change
[3] = system: Virus Pneumonia induced by influenza; assay: Anti-virus test in vivo: Virus Pneumonia induced by influenza; parameters: species or system Mice; conditions: dosage 0.07 g/kg
Text: B. Anti-virus test in vivo

herpes I virus (HSV-I) = assay: Anti-virus test: inhibition of virus-induced cytopathy in Hep-2 cells; assay type: cell-based; conditions: 125 μg/ml
Influenza virus A3 = assay: as above; assay type: cell-based; conditions: 125 μg/ml
RSV [4] = assay: as above; assay type: cell-based; conditions: 125 μg/ml
[5] = system: parainfluenza virus I (HVJ); assay: as above; assay type: cell-based; conditions: 125 μg/ml

CN(C)CCC(c1ccc(Br)cc1)c1ccccn1.O=C(O)/C=C\C(=O)O (stereo not shown) [Ebalin]
Ileum contraction with histamine plus test drug ([1]; Table 13: histamine 3.3 × 10^−6 g/ml + test drug 1 × 10^−3 g/ml, histamine alone 271 ± 42): 181 ± 32 % | Ileum contraction with histamine plus test drug ([1]; Table 14: histamine 3.3 × 10^−6 g/ml + 1 × 10^−6 g/ml, histamine alone 235.29 ± 35.30): 133.81 ± 405.5 %

N=C(N)/N=C(\N)N1CCOCC1 [Moroxydine hydrochloride]
Inhibitory effect for the virus (CPE) (HSV-II; 1%, 10 mg/ml): + | Inhibitory effect for the virus (CPE) (HSV-II; 5%, 50 mg/ml): + | Inhibitory effect for the virus (CPE) (HSV-II; 10%, 100 mg/ml): + | Inhibitory effect for the virus (CPE) (HSV-II; 15%, 150 mg/ml): + | Inhibitory effect for the virus (CPE) (HSV-II; 20%, 200 mg/ml): + | Inhibitory effect for the virus (CPE) (Influenza A; 1%, 10 mg/ml): + | Inhibitory effect for the virus (CPE) (Influenza A; 5%, 50 mg/ml): − | Inhibitory effect for the virus (CPE) (Influenza A; 10%, 100 mg/ml): − | Inhibitory effect for the virus (CPE) (Influenza A; 15%, 150 mg/ml): − | Inhibitory effect for the virus (CPE) (Influenza A; 20%, 200 mg/ml): − | Inhibitory effect for the virus (CPE) (RSV [2]; 1%, 10 mg/ml): + | Inhibitory effect for the virus (CPE) (RSV [2]; 5%, 50 mg/ml): + | Inhibitory effect for the virus (CPE) (RSV [2]; 10%, 100 mg/ml): + | Inhibitory effect for the virus (CPE) (RSV [2]; 15%, 150 mg/ml): + | Inhibitory effect for the virus (CPE) (RSV [2]; 20%, 200 mg/ml): + | Inhibitory effect for the virus (CPE) (ADV3; 1%, 10 mg/ml): + | Inhibitory effect for the virus (CPE) (ADV3; 5%, 50 mg/ml): + | Inhibitory effect for the virus (CPE) (ADV3; 10%, 100 mg/ml): + | Inhibitory effect for the virus (CPE) (ADV3; 15%, 150 mg/ml): + | Inhibitory effect for the virus (CPE) (ADV3; 20%, 200 mg/ml): +

NC(=O)c1ncn([C@@H]2O[C@H](CO)[C@@H](O)[C@H]2O)n1 [Ribavirin]
Inhibitive rate (100%) [3]: 24.68% | Lung index (X ± SD) ([3]; infection control 1.54 ± 0.25): 1.16 ± 0.15 | Anti-virus effect of Ribavirin (herpes I virus (HSV-I)): + | Anti-virus effect of Ribavirin (Influenza virus A3): + | Anti-virus effect of Ribavirin (RSV [4]): + | Anti-virus effect of Ribavirin [5]: +
